According to BindingDB's records for patent US11903936 (University of Texas, 2024):

Biological target: T1, Dihydroorotate dehydrogenase (quinone), mitochondrial (Plasmodium falciparum (isolate 3D7), UniProt Q08210)
T1 sequence (Q08210 whole entry): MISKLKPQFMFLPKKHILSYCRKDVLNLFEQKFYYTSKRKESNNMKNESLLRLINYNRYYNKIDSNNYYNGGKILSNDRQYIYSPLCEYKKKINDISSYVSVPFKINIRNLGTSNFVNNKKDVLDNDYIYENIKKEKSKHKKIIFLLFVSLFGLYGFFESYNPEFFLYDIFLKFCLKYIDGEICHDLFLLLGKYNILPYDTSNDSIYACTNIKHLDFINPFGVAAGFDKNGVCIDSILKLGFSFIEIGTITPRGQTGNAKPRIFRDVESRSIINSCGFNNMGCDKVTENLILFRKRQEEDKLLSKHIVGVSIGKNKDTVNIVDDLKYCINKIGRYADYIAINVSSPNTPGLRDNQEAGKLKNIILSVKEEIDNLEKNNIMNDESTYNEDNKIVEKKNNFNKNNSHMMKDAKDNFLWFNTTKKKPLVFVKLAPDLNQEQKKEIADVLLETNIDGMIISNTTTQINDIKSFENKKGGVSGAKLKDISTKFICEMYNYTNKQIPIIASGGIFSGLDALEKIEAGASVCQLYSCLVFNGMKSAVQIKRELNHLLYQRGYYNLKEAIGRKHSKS
Assay: P. falciparum growth and inhibition assays
Description: DSMO inhibitor stocks (as above) were diluted in DMSO using a 2 or 3-fold dilution series and then dispensed into media at 10× the final concentrations. A second step into media led to final inhibitor concentrations ranging from 0.001-30 μM and a final DMSO concentration of 0.2%. […] Data were collected using triplicate technical replicates and where indicated additional biological replicates were collected (the number of biological replicates is provided in parenthesis).

Cc1c(Cc2ccc(C(F)(F)F)c(F)c2)c[nH]c1C(=O)NC(C)c1nc[nH]n1 (stereo unspecified) [US11903936, Compound 5]
EC50: 39 nM
